In patent publication US20080207900A1, “TWO CYCLIC OXOMORPHORIN DERIVATIVES” (priority 2007, published 2008):

These compounds were tested on Aβ42 production (assay: Quantitation of Aβ peptide in neuronal cell culture derived from a rat fetal brain (Aβ ELISA)). Conditions: rat primary neuronal cell culture (cerebral cortex, 18-day embryos); medium recovered 3 days after adding the compound; Aβx-42 ELISA; test concentration not given.
Format: cell-based
From the text: Quantitation of Aβ Peptide in Neuronal Cell Culture Derived from a Rat Fetal Brain.
The cerebral cortex was isolated from 18-day embryos of Wister rats (Charles River Japan, Yokohama, Japan) and cultured. More specifically, under ether anesthesia, embryos were aseptically resected from pregnant rats. The brains were resected from the embryos and placed in an ice cold L-15 medium (Invitrogen Corp. Cat. #11415-064, Carlsbad, Calif., USA or SIGMA L15181 and the like). From the resected brains, the cerebral cortex was collected under a stereoscopic microscope. The collected pieces of the cerebral cortex were treated in an enzyme solution containing 0.25% trypsin (Invitrogen Corp. Cat. #15050-065, Carlsbad, Calif. USA) and 0.01% DNase (Sigma D5025, St. Louis, Mo., USA) at 37° C. for 30 minutes to disperse cells. Then, the enzyme reaction was stopped by adding inactivated horse serum. The resultant enzyme treatment solution was centrifuged at 1500 rpm for 5 minutes to remove the supernatant. A medium (5-10 ml) was added to the obtained cell aggregates. The medium used was Neurobasal medium (Invitrogen Corp. Cat. #21103-049, Carlsbad, Calif., USA) added with 2% B27 supplement (Invitrogen Corp. Cat #17504-044, Carlsbad, Calif. USA), 25 μM 2-mercaptoethanol (2-ME, WAKO Cat. #139-06861, Osaka, Japan), 0.5 mM L-glutamine (Invitrogen Corp. Cat. #25030-081, Carlsbad, Calif., USA) and Antibiotics-Antimycotics (Invitrogen Corp. Cat. #15240-062, Carlsbad, Calif., USA) (Neurobasal/B27/2-ME). However, a media without 2-ME (Neurobasal/B27) was used when an assay was carried out. The cell aggregates mixed with the medium were pipetted gently to re-disperse the cells. The resultant cell dispersion was filtered through a 40 μm nylon mesh (cell strainer, Cat. #. 35-2340, Becton Dickinson Labware, Franklin Lakes, N.J., USA) to obtain a neuronal cell suspension by removing cell aggregates. The resultant neuronal cell suspension was diluted with the medium and seeded into poly-L or D-lysine coated 96 well polystyrene culture vessels (Falcon Cat. #. 35-3075, Becton Dickinson Labware, Franklin Lakes, N.J., USA, coated with poly-L-lysine by a following method or BIOCOAT™πcell environments Poly-D-lysine cell ware 96-well plate, Cat. #. 35-6461, Becton Dickinson Labware, Franklin Lakes, N.J., USA) at 100 μL/well so that the initial cell density was 5×10^5 cells/cm^2. The poly-L-lysine coating was carried out as follows. Using 0.15 M Borate buffer (SIGMA P2636, St. Louis, Mo., USA) solution was aseptically prepared. The resultant solution was added to 96 well polystyrene culture vessels at […] and incubated at room temperature for 1 hour or longer or at 4° C. overnight or longer. Then the coated 96 well polystyrene culture vessels were washed with sterilized water 4 times or more, dried or rinsed with sterilized PBS or the medium and used for seeding the cells. After culturing the seeded cells were incubated at 37° C. in an incubator under a 5% CO2-95% air for 1 day, the whole medium was replaced with fresh Neurobasal/B27/2-ME medium, and the incubation was continued for 3 days.
At day 4 of culturing, drugs were added as follows. The whole medium was withdrawn and Neurobasal medium containing 2% B-27 but no 2-ME (Neurobasal/B27) was added to the well at 180 μL/well. A dimethylsulfoxide (hereinafter abbreviated as DMSO) solution of a test compound was diluted with Neurobasal/B27 to a 10 times concentration of the final concentration. The resultant diluted solution was added to the well at 20 μL/well and mixed well. The final DMSO concentration was to be 1% or less. Only DMSO was added to the control group.
After culturing 3 days after adding the compound, the whole medium was recovered. The medium thus obtained was used as ELISA samples. For Aβx-42 measurement, no dilution was made but for Aβx-40 measurement, samples were diluted 5 folds with the diluent attached to the ELISA kit to be subjected to the ELISA tests. […]

Row | Compound | Aβ42 production reducing activity
1 | COc1cc(/C=C2\O[C@@H](C)[C@H]3COC[C@@H](c4cc(F)c(F)c(F)c4)N3C2=O)ccc1-n1cnc(C)c1 [Example 2, (Z)-(1S,6R,9aR)-3-[3-methoxy-4-(4-methylimidazol-1-yl)benzylidene]-1-methyl-6-(3,4,5-trifluorophenyl)tetrahydro-[1,4]oxazino[3,4-c][1,4]oxazin-4-one] | 52 % of CTRL
2 | COc1cc(/C=C2\OC(C)(C)[C@H]3CC[C@@H](c4ccc(Cl)cc4)N3C2=O)ccc1-n1cnc(C)c1 [Example 8, (Z)-(6S,8aR)-6-(4-chlorophenyl)-3-[3-methoxy-4-(4-methylimidazol-1-yl)benzylidene]-1,1-dimethyltetrahydropyrrolo[2,1-c][1,4]oxazin-4-one] | 74 % of CTRL
3 | COc1cc(/C=C2\O[C@@H](C)[C@H]3CC[C@@H](c4ccc(Cl)cc4)N3C2=O)ccc1-n1cnc(C)c1 [Example 9, (Z)-(1S,6S,8aR)-6-(4-chlorophenyl)-3-[3-methoxy-4-(4-methylimidazol-1-yl)benzylidene]-1-methyltetrahydropyrrolo[2,1-c][1,4]oxazin-4-one] | 95 % of CTRL
4 | COc1cc(/C=C2\OC(C)(C)[C@H]3CC[C@@H](c4cc(F)c(F)c(F)c4)N3C2=O)ccc1-n1cnc(C)c1 [Example 11, (Z)-(6S,8aR)-3-[3-methoxy-4-(4-methylimidazol-1-yl)benzylidene]-1,1-dimethyl-6-(3,4,5-trifluorophenyl)tetrahydropyrrolo[2,1-c][1,4]oxazine-4 one] | 67 % of CTRL
5 | COc1cc(/C=C2\O[C@@H](C)[C@H]3CC[C@@H](c4cc(F)c(F)c(F)c4)N3C2=O)ccc1-n1cnc(C)c1 [Example 12, (Z)-(1S,6S,8aR)-3-[3-Methoxy-4-(4-methylimidazol-1-yl)benzylidene]-1-methyl-6-(3,4,5-trifluorophenyl)tetrahydropyrrolo[2,1-c][1,4]oxazin-4-one] | 91 % of CTRL
6 | COc1cc(/C=C2\O[C@@H](C)[C@H]3CCC[C@@H](c4cc(F)c(F)c(F)c4)N3C2=O)ccc1-n1cnc(C)c1 [Example 17, (Z)-(1S,6S,9aR)-3-[3-methoxy-4-(4-methylimidazol-1-yl)benzylidene]-1-methyl-6-(3,4,5-trifluorophenyl)hexahydropyrido[2,1-c][1,4]oxazin-4-one] | 53 % of CTRL
7 | COc1cc(/C=C2\OC(C)(C)[C@H]3COC[C@@H](c4cc(F)c(F)c(F)c4)N3C2=O)ccc1-n1cnc(C)c1 [Example 19] | 42 % of CTRL
